Data as given in patent US20230295134A1, “USE OF PHENYLQUINOLINONE DERIVATIVE OR FLAVONOID DERIVATIVE FOR TREATING NEUROPATHIC PAIN” (HANGZHOU BIO-SINCERITY PHARMA-TECH CO., LTD., priority 2019, published 2023).

Assays:
PSL model rats = assay: Heat pain threshold in partial sciatic nerve ligation (PSL) model; assay type: in vivo, SD rats; details: for heat pain threshold vs Pregabalin group: comparator 30 mg/kg Pregabalin
Description: Male SD rats, weighting 200-250 g, were used to establish partial sciatic nerve ligation (PSL) model. The rats were subjected to ligation of the right sciatic nerve at high-tight level, so that ⅓-½ thickness of the sciatic nerve was trapped in the ligature, and then the wound was closed. The rats in sham group were subjected to the same operative procedure as the PSL model but without nerve ligation. On the sixth day after operation, heat pain threshold was measured in PSL model rats with Plantar Test Apparatus (BME-410) for 2 days to choose rats with stable heat pain threshold, which were randomly divided into 5 groups: 1) model; 2) 30 mg/kg Pregabalin; 3) 3 mg/kg Compound I-6; 4) 1 mg/kg Compound I-6; and 5) 0.3 mg/kg Compound I-6. Group 2-5 were given corresponding medicines orally with the dose of 1 ml/100 g, while the Group model and normal were given saline of the same volume with the same method. Heat pain threshold was measured before administration and 1, 2, 4, 6 h after intragastric administration, and the results were shown in FIG. 1.
Male SD rats, weighting 200-250g, were used to establish partial sciatic nerve ligation (PSL) model. The rats were subjected to ligation of the right sciatic nerve at high-tight level, so that ⅓-½ thickness of the sciatic nerve was trapped in the ligature, and then the wound was closed. The rats in sham group were subjected to the same operative procedure as the PSL model but without nerve ligation. On the sixth day after operation, heat pain threshold was measured in PSL model rats with Plantar Test Apparatus (BME-410) for 2 days to choose rats with stable heat pain threshold, which were randomly divided into 7 groups: 1) model; 2) 50 mg/kg Gabapentin; 3) 100 mg/kg Carbamazepine; 4) 10 mg/kg Amitriptyline; 5) 1 mg/kg Compound I-4; 6) 1 mg/kg Compound I-6; and 7) 1 mg/kg Compound II-4. Group 2 -7 were given corresponding medicines orally with the dose of 1 ml/100 g, while the Group model and normal were given saline of the same volume with the same method. Heat pain threshold was measured before and 1, 2, 4, 6h after intragastric administration, and the results were shown in FIG. 2.

[1] = test system: OXA neuropathic pain model rats; assay: Mechanical withdrawal threshold in Oxaliplatin chemotherapy-induced neuropathic pain model; assay type: in vivo, SD rats; details: for mechanical withdrawal threshold vs Pregabalin: 2nd-4th hour after administration
Description: Male SD rats (200-250 g) were injected 4 mg/kg of Oxaliplatin by intraperitoneal on day 1, 2, 8, 9, 15, 16, 22 and 23 to establish chemotherapy-induced neuropathic pain model. On day 24, the mechanical withdrawal threshold of rats in group normal and model were measured with Electric Von Frey (IITC-2391) to choose rats with stable mechanical withdrawal threshold, which were randomly divided into 5 groups: 1) model; 2) 30 mg/kg Pregabalin; 3) 9 mg/kg Compound II-4; 4) 3 mg/kg Compound II-4; and 5) 1 mg/kg Compound II-4. Group 2 -5 were given corresponding medicines orally with the dose of 1 ml/100g, while the Group model and normal were given saline of the same volume with the same method. Mechanical withdrawal threshold was measured before administration and 1, 2, 4, 6h after single administration, and the results were shown in FIG. 5.

[2] = Security: intragastric administration of different dosages in mice; assay type: in vivo; details: mouse, in vivo, po; ICR mice; intragastric administration; read-out: half lethal dose (LD50)
ICR mice = assay: as above; assay type: in vivo
[3] = In vivo pharmacokinetic studies (bioavailability); details: SD rats
Description: The in vivo pharmacokinetic studies of Compound I-6 were conducted in SD rats (n=3).

[4] = test system: diabetic neuropathic pain model; assay: Heat pain threshold in STZ-induced diabetic neuropathic pain model; assay type: in vivo, SD rats; details: STZ rats; for heat pain threshold of diabetic neuropathic pain model: single dose PO, I-6 1 mg/kg, Gabapentin 50 mg/kg
Description: Male SD rats (200-250 g) with normal blood sugar were fasted but had free access to water for 12 hours. The diabetes model was induced by intraperitoneal injection of 60 mg/kg streptozotocin (STZ), and was examined by 2-hour postprandial sugar level on day 7 after injection, which should be higher than 16 mmol/L. The rats in normal group were given an equal volume of citric acid-sodium citrate buffer (pH 4.2). On day 14 after injection, the heat pain threshold of rats in diabetes model or normal group were measured with Plantar Test Apparatus (BME-410) to examine the success of diabetic neuropathic pain model. The rats in diabetic neuropathic pain model were divided into 3 groups: 1) model; 2) 50 mg/kg Gabapentin; and 3) 1 mg/kg Compound I-6. Group 2 and 3 were given corresponding medicines orally with the dose of 1 ml/100 g, while the Group model and normal were given saline of the same volume with the same method. Heat pain threshold was measured before administration and 1, 2, 4, 6 h after administration, and the results were shown in FIG. 4.

CCI model rats [5] = assay: Mechanical withdrawal threshold in chronic constrictive injury (CCI) model, single dose; assay type: in vivo, SD rats
Description: Male SD rats, weighting 200-250 g, were used to establish chronic constrictive injury (CCI) model. The common sciatic nerve was exposed at the level of the middle of the thigh, and 4 ligatures (4.0 chromic gut, 0.15 mm) were tied loosely with about 1-2 mm spacing to the position proximal to the sciatic's trifurcation. The rats in sham group were subjected to the same operative procedure as the CCI model but without nerve ligation. On the seventh day after operation, mechanical withdrawal threshold was measured in CCI model rats with Electric Von Frey (IITC-2391) for 2 days to choose rats with stable mechanical withdrawal threshold, which were divided into 5 groups: 1) model; 2) 50 mg/kg Gabapentin; 3) 9 mg/kg Compound I-4; 4) 3 mg/kg Compound I-4; and 5) 1 mg/kg Compound I-4. Group 2 -5 were given corresponding medicines orally with the dose of 1 ml/100 g, while the Group model and normal were given saline of the same volume with the same method. Mechanical withdrawal threshold was measured before administration and 1, 2, 4, 6 h after intragastric administration, and the results were shown in FIG. 3.

CCI model rats [6] = assay: Mechanical withdrawal threshold in CCI model, 5 days repeated administration; assay type: in vivo, SD rats
Description: Male SD rats, weighting 200-250 g, were used to establish CCI model. The common sciatic nerve was exposed at the level of the middle of the thigh, and 4 ligatures (4.0 chromic gut, 0.15 mm) were tied loosely with about 1-2 mm spacing to the position proximal to the sciatic's trifurcation, then the wound was closed. The rats in sham group were subjected to the same operative procedure as the CCI model but without nerve ligation. On the seventh day after operation, mechanical withdrawal threshold was measured in CCI model rats with Electric Von Frey (IITC-2391) for 2 days to choose rats with stable mechanical withdrawal threshold, which were divided into 5 groups: 1) model; 2) 50 mg/kg Gabapentin; 3) 3 mg/kg Compound I-10; 4) 1 mg/kg Compound I-10; and 5) 0.3 mg/kg Compound I-10. Group 2-5 were given corresponding medicines orally with the dose of 1 ml/100 g for 5 days, while the Group model and normal were given saline of the same volume with the same method. Mechanical withdrawal threshold was measured before and 2 h after intragastric administration, and the results were shown in FIG. 6.

[7] = 1 mg/kg PO single dose, since 1 hour after administration
[8] = 1 mg/kg PO, comparator 50 mg/kg Gabapentin

COc1c(-c2ccc(OCCCN3CCCCC3)cc2)oc2ccccc2c1=O [Compound II-4, 3-Methoxy-2-(4-(3-(Piperidin-1-Yl)Propoxy)Phenyl)-4H-Chromen-4-One]
heat pain threshold vs model group (PSL model rats; [7]): significantly higher than model group
mechanical withdrawal threshold vs model group ([1]; 1 mg/kg PO, 1st-2nd hour after administration): significantly higher (P<0.01) than model group
mechanical withdrawal threshold vs Pregabalin ([1]; 3 mg/kg PO): significantly higher (P<0.05) than 30 mg/kg Pregabalin
mechanical withdrawal threshold vs Pregabalin ([1]; 9 mg/kg PO): significantly higher (P<0.05) than 30 mg/kg Pregabalin
mechanical withdrawal threshold, relation to dose ([1]; single dose 1, 3 or 9 mg/kg PO): dosage-dependent increase
improvement of mechanical withdrawal threshold compared with Pregabalin ([1]; single dose PO): more effectively and longer

CC(C)C[C@H](CN)CC(=O)O [Pregabalin, reference compound]
onset of action on mechanical withdrawal threshold ([1]; 30 mg/kg PO): rapid action

CCn1c(-c2ccc(OCCCN3CCCCC3)cc2)cc(=O)c2ccccc21 [Compound I-6, 1-Ethyl-2-(4-(3-(Piperidin-1-Yl)Propoxy)Phenyl)Quinolin-4(1H)-One]
heat pain threshold vs model group (PSL model rats; 0.3 mg/kg PO, 2nd hour after administration): significantly higher (P<0.01) than model group
heat pain threshold vs model group (PSL model rats; [7]): significantly higher than model group
heat pain threshold vs Pregabalin group (PSL model rats; 1.0 mg/kg PO): raised to be compared to 30 mg/kg Pregabalin group
heat pain threshold vs sham group (PSL model rats; 3.0 mg/kg PO, 1st-2nd hour after administration): further improved to the level equal to sham group
heat pain threshold vs Pregabalin group (PSL model rats; 3.0 mg/kg PO, 1st-2nd hour): better than Pregabalin group
heat pain threshold, relation to dose (PSL model rats; single dose 0.3, 1 or 3 mg/kg PO): increased in a dose-dependent manner
LD50 [2]: > 1020 mg/kg
signs after intragastric administration (ICR mice; 64 mg/kg): no abnormal signs
signs after intragastric administration (ICR mice; 256 mg/kg): one of the mice given a dose of 256 mg/kg suffered convulsions but recovered on the second day
signs after intragastric administration (ICR mice; 1024 mg/kg): one of the mice given a dose of 1024 mg/kg suffered convulsions and finally died on the second day
time at which peak plasma concentrations occur ([3]; P.O 10.0 mg/kg): 2.00 ± 1.73 h
half-life ([3]; Sprague-Dawley (SD), rat, plasma, iv, 1 mg/kg, I.V 1.00mg/kg): 6 ± 1.43 h
bioavailability ([3]; Sprague-Dawley (SD), rat, plasma, po, 10 mg/kg, read-out: absolute bioavailability): 51.3%
half-life ([3]; Sprague-Dawley (SD), rat, plasma, po, P.O 10.0 mg/kg): 3.79 ± 0.12 h
effective time vs Gabapentin [4, 8]: longer effective time
heat pain threshold vs Gabapentin [4, 8]: significantly higher heat pain threshold (P<0.01)
heat pain threshold of diabetic neuropathic pain model [4]: could improve the heat pain threshold

NCC1(CC(=O)O)CCCCC1 [Gabapentin, reference compound]
mechanical withdrawal threshold vs model group (CCI model rats [5]; 50 mg/kg PO single dose): only remained significantly higher than model group during 1st-2nd hour
heat pain threshold of diabetic neuropathic pain model [4]: could improve the heat pain threshold
mechanical withdrawal threshold vs model group (CCI model rats [6]; 50 mg/kg PO for 5 days): only kept the significant difference during 2nd-5th day

COc1c(-c2ccc(OCCCN3CCCCC3)cc2)n(C)c2ccccc2c1=O [Compound I-10, 3-Methoxy-1-Methyl-2-(4-(3-(Piperidin-1-Yl)Propoxy)Phenyl)Quinolin-4(1H)-One]
mechanical withdrawal threshold vs model group (CCI model rats [6]; 1 mg/kg PO for 5 days, 1st-5th day after administration): significantly higher (P<0.01) than model group
dose-dependency and stability of efficacy (CCI model rats [6]; 5 days PO, compared with 50 mg/kg Gabapentin): better dose-dependency and stability of efficacy compared to Gabapentin
mechanical withdrawal threshold, relation to dose (CCI model rats [6]; repeated administration 5 days, 0.3, 1 or 3 mg/kg PO): increased in a dose-dependent manner

Cn1c(-c2ccc(OCCCN3CCCCC3)cc2)cc(=O)c2ccccc21 [Compound I-4, 1-Methyl-2-(4-(3-(Piperidin-1-Yl)Propoxy)Phenyl)Quinolin-4(1H)-One]
heat pain threshold vs model group (PSL model rats; [7]): significantly higher than model group
mechanical withdrawal threshold vs model group (CCI model rats [5]; 3 mg/kg PO, 1st-4th hour after administration): significantly higher (P<0.01) than model group
mechanical withdrawal threshold, relation to dose (CCI model rats [5]; single dose 1, 3 or 9 mg/kg PO): dose-dependent increase
effective time (CCI model rats [5]; single dose PO, compared with 50 mg/kg Gabapentin): longer than Gabapentin
